The test system of this experiment is diabetic patients (type 1 and type 2 diabetes mellitus). Nature of the experiment: Research Plan 2: therapy of diabetes mellitus targeting a bone marrow-derived abnormal hematopoietic stem cell. It counts as in vivo, human. To be noted: type 1 and type 2 diabetic patients; 12 weeks therapy; predicted result.

The values that follow come from US20230025003A1, “DIABETES THERAPY TARGETING ABNORMAL STEM CELLS” (Biozipcode, Inc., priority 2019, published 2023).

Consider “insulin alone: insulin therapy alone (control group of Research Plan 2)”, for which the “Effect of eliminating an abnormal hematopoietic stem cell” value is reported as “not eliminated”; the “Effect of healing diabetes mellitus” value is “not observed”; the “Therapeutic effect on a complication” value is “observed to some extent, but the complication does not heal”.
